Assay results: patent US20260227408A1, “Compositions and Methods for Modulation of Immune Responses” (Flagship Pioneering Innovations VI, LLC, priority 2022, published 2026)

Experiments:
[1] = tested on: Peripheral Blood Mononuclear Cells; assay: PBMC cytokine release by CBA, Activation format (peptide alone); assay type: cell-based, human; parameters: key: X = a hit with significant activation or inhibition of relevant cytokine release; settings: peptide applied to PBMCs alone; supernatant CBA after 24 hours
Method: (§1) CBA (Cytometry) experiment looking at pro-inflammatory cytokines produced by PBMCs treated with secreted peptides.
(§2) Peripheral Blood Mononuclear Cells were seeded+/−the T-cell activator […] and +/−peptides for 24-48 hours. Cytokines were measured from the supernatant after incubation by CBA Cytometer.
(§3) Thawing PBMCs: PBMCs were thawed by pre-warming TexMACS media (Miltenyi Biotech) in 20 ml aliquots-1-50 ml conical per donor. After the media was warmed to 37° C., cells were removed from liquid nitrogen and brought to the tissue culture hood. For each donor, 1 ml of media from the warmed aliquot was added to the frozen vial and mixed up and down. The media plus thawed cells were then added back to the 50 ml conical. This was repeated until all the cells were thawed and added to the 50 ml tube. Continue with other donors if used. Spin cells for 5 min at 400×g. Supernatant was aspirated and cells resuspended at ~10*10^6 cells/ml (see vial for cell number).
(§4) PBMC Plating: Frozen PBMCs from normal, healthy, human volunteers (StemCell Technologies) were thawed and plated at 250,000 cells/well. After PBMCs were thawed and resuspended at […], cells were then counted (Countess III, Thermo Scientific) and adjusted based on counts to […]. Take the number of PBMCs determined by number of wells for the experiment, for example, 10 wells would need 2.5*10^6 cells total or 0.250 ml. The cells needed for the experiment are then transferred to another conical tube. Warmed TexMACS media is added so that the final concentration is 250,000 cells/190 ul media, for example, 10 wells would need 1.9 ml (190 ul×10 wells) of media total minus 0.250 ml of cells (1.9 ml-0.250 ml) or 1.65 ml of media added to the 0.250 ml of cells. Add 190 ul of cells plus media to the 96 well U-bottom plate. Place in incubator until dilutions are made and ready.
(§5) Peptide Dilutions: Ideally, all peptides should be at a starting concentration of at least 10 mM, especially for those in DMSO (ATCC) to reach a final concentration of 1 uM (H2O) or 0.5 uM (DMSO). Dilutions of all test articles should be made at 20× the final concentration, for example, a final concentration of 1 uM peptide would need to be made at 20 uM.
(§6) Reagent Dilution: Dilutions are made in TexMACS media, enough for 10 ul/well in triplicate (30 ul of a 20×). Activator—CD3/CD28 (TransAct; Miltenyi Biotech) or cytokine will be at 21× and added after the 45-minute incubation with peptides. Be sure to include relevant controls—Positive: TransAct+Cells, Negative: Vehicle+Cells. Dilutions should also be made in a ultra-low binding plate (Corning).
(§7) Assay Procedure: Peptide Treatment: Start assay by thawing the cells and plating in a 96 well, U-bottom tissue culture plate (Corning) as described above. Cell plates are placed in a tissue culture incubator (5% CO2, 37° C.). While cells are in the incubator, start making dilutions (optimally 1 hr or less) as described above. Cell plates are removed from the incubator and 10 ul of the 20× dilutions are added to the relevant wells. After the addition of inhibitors, cell plates are placed in the tissue culture incubator for 45 minutes. The plates are removed from the incubator and 10 ul of […] TransAct is added to the relevant wells*. Plates are then returned to the incubator and incubated for 24 hours. After 24 hours, plates are spun for 5 minutes at 400×g. * Activation: This assay can be run in two different formats—Activation and Inhibition. The procedure is the same except no TransAct is needed in the peptide wells for Activation. TransAct is only needed in the control wells. The purpose of this procedure is to determine the possible response from peptides alone.
(§8) Cytometric BeadArray (CBA): After the spin, supernatants (~150 ul) are transferred to a new, ultra-low binding U-bottom plate. Supernatants are then frozen at −20° C. until thawed for CBA (BD) to determine levels of human IL-2, TNFa, IL-1b, IP-10, IL-10, and IFNg. […]

[2] = tested on: CD3/CD28 (TransAct) activated PBMCs; assay: PBMC cytokine release by CBA, Inhibition format (peptide with CD3/CD28 TransAct activator); assay type: cell-based, human; parameters: key to Inhibition by Analyte IL-1b / Inhibition by Analyte IL-2 / Inhibition by Analyte TNF / Inhibition by Analyte IP-10 / Inhibition by Analyte IL-10: X = a hit with significant activation or inhibition of relevant cytokine release
Method: as §1, §2, §3, §4, §5, §6, §7, §8

[3] = peptide applied with anti-CD3/CD28 T-cell activator, supernatant CBA after 24 hours

## SEQ ID NO: 33678: target protein of the Sequence Listing, applied as peptide to PBMCs (METSCSLWVSSELFCRSVKVFFCLLALHLSALPHSSWTQDKNLGLAGMVELK; listed as Homo sapiens)
[1]
  Activation by Analyte IP-10: X

## SEQ ID NO: 33885: Target Protein validated as an anti-inflammatory immune modulator (VAEPRRGHLKAALASLGGAAPAAATNGSPPLFK; listed as Homo sapiens)
[2]; CD3/CD28 (TransAct) activated PBMCs, FIG. 1
  release of TNF-alpha from activated PBMCs: significantly blocks
[2]; CD3/CD28 (TransAct) activated PBMCs, FIG. 2
  release of IL-1b from activated PBMCs: does not block
[2]; [3]
  Inhibition by Analyte IL-1b: X
  Inhibition by Analyte IL-2: X
  Inhibition by Analyte IP-10: X
  Inhibition by Analyte TNF: X

## SEQ ID NO: 33934: target protein of the Sequence Listing, applied as peptide to PBMCs (MSFDHPEKNGPWPADPINLPSHG; listed as Homo sapiens)
[2]; [3]
  Inhibition by Analyte IL-2: X
  Inhibition by Analyte TNF: X

## SEQ ID NO: 34837: target protein of the Sequence Listing, applied as peptide to PBMCs (MRSPLSASALLLWSSSVARAFSSPSLLMAVPSPTCSRY; listed as Homo sapiens)
[2]; [3]
  Inhibition by Analyte IL-1b: X
  Inhibition by Analyte IL-10: X
  Inhibition by Analyte IP-10: X
  Inhibition by Analyte TNF: X

## SEQ ID NO: 35373: target protein of the Sequence Listing, applied as peptide to PBMCs (LDFIRAFLLLLVASVPGKIGSQNLTAQRPPVATSFLQMESSEPTVRK; listed as Homo sapiens)
[2]; [3]
  Inhibition by Analyte IL-1b: X
  Inhibition by Analyte IL-2: X
  Inhibition by Analyte IP-10: X
  Inhibition by Analyte TNF: X

## SEQ ID NO: 35558: target protein of the Sequence Listing, applied as peptide to PBMCs (MTAFGLGIPTFLVMQPSGSQPRFPALTQNGVALVRTPLTSVYLRVRICRVLGPRSQPS; listed as Homo sapiens)
[1]
  Activation by Analyte IL-10: X
  Activation by Analyte IP-10: X
[2]; [3]
  Inhibition by Analyte IL-1b: X
  Inhibition by Analyte TNF: X

## SEQ ID NO: 37043: target protein of the Sequence Listing, applied as peptide to PBMCs (MSEVATLLFSQTALASLESVHPAGHKLWMRNLRQVTSP; listed as Homo sapiens)
[2]; [3]
  Inhibition by Analyte IL-2: X
  Inhibition by Analyte TNF: X

## SEQ ID NO: 37192: target protein of the Sequence Listing, applied as peptide to PBMCs (MVSHRKDWRRVNLRFSSCLLLSICLDDKPSADELCFWTDHGRSQLTCPSLGVSQGHARSS; listed as Homo sapiens)
[1]
  Activation by Analyte IP-10: X

## SEQ ID NO: 37363: target protein of the Sequence Listing, applied as peptide to PBMCs (MGGKSWLFFYSLVFCALLPLPRREDPFKLF; listed as Homo sapiens)
[2]; [3]
  Inhibition by Analyte IL-1b: X

## SEQ ID NO: 37375: target protein of the Sequence Listing, applied as peptide to PBMCs (MARPLSLAAAGAPDLLFTALCSLLIEAQPLRPFDLQVLGDPQPRARTP; listed as Homo sapiens)
[1]
  Activation by Analyte IL-2: X

## SEQ ID NO: 37394: target protein of the Sequence Listing, applied as peptide to PBMCs (MESRTLLLLFSGAVALIQTWADYNYNQGRNDLIFTLQLWKRQ; listed as Homo sapiens)
[2]; [3]
  Inhibition by Analyte IL-1b: X

## SEQ ID NO: 38042: target protein of the Sequence Listing, applied as peptide to PBMCs (MWWKTPCWWTPSTTATSSSAEARSCGRLLKSMAG; listed as Homo sapiens)
[1]
  Activation by Analyte IP-10: X

B1: SEQ ID NO: 37477: target protein of the Sequence Listing, applied as peptide to PBMCs (peptide, listed as Homo sapiens)
chain: MSCGSRRGPSLASSLAWLQLQSGTRPFCSSSPPYFLSHGRRIPFSHPRKESALRATKEPRTHRTNTSLADLPSPAPAHL
[1]
  Activation by Analyte IL-1b: X

B2: SEQ ID NO: 33741: target protein of the Sequence Listing, applied as peptide to PBMCs (peptide, listed as Homo sapiens)
chain: MSYLPTNPPGSILTCWLGVSLGSHRSARGGSTIYGRLLPRRKDVWFSQAKDVPKYRGLLYLQS
[1]
  Activation by Analyte IP-10: X

B3: SEQ ID NO: 33169: target protein of the Sequence Listing, applied as peptide to PBMCs (peptide, listed as Homo sapiens)
chain: MCHKGWHGPGVPHHVAFTPCKARLRPATQCQAHSSPRRKMVQAGSIPLAAASGRLCLTHAGWWRGAS
[1]
  Activation by Analyte IP-10: X

B4: SEQ ID NO: 35480: target protein of the Sequence Listing, applied as peptide to PBMCs (peptide, listed as Homo sapiens)
chain: LRPRSAAFAPRYTRLVMRRSSRSFRLQCTGFPSSSAQSISAHLSNSMPSSLLTISRCPGMFAVRCPL
[1]
  Activation by Analyte IP-10: X

B5: SEQ ID NO: 36902: target protein of the Sequence Listing, applied as peptide to PBMCs (peptide, listed as Homo sapiens)
chain: MQRLPAAFFRSFAAQGLGESVHINTPTSLSLRGRPFISSSGPGARARVTCAPCLHAARILCCFWRGLHR
[1]
  Activation by Analyte IP-10: X

B6: SEQ ID NO: 38393: target protein of the Sequence Listing, applied as peptide to PBMCs (peptide, listed as Homo sapiens)
chain: VALSLLTSQGRQRRAGPSTAFAALPATVATFSAMTESESLRTSRHADTALARVRRGAKFRGQARTRYCARARSHRFTPPSGA
[1]
  Activation by Analyte IP-10: X

B7: SEQ ID NO: 37047: target protein of the Sequence Listing, applied as peptide to PBMCs (peptide, listed as Homo sapiens)
chain: MMAQKSKFRVLFMSDPHGTAMPLTSAILESSRASLAAKQEDKCFTDIRNLKWKHFLEHTKQPP
[1]
  Activation by Analyte IP-10: X
